{
  "source": "patent US12370235B2",
  "about": "“Synthetic, non-natural antimicrobial peptides inspired by Staphylococcus auricularis delta toxin” (University of Saskatchewan, priority 2021, dated 2025)",
  "key": {"panel of 7 MRSA strains": {"system": "panel of 7 MRSA strains", "type": "cell-based, Staphylococcus aureus", "experimental": "The antibiotic effect of STIP3-29 was bactericidal (FIG. 3). […] Some proportion of bacterial cells escaped treatment, remaining dormant. Indeed, strain-dependent persister cells, capable of escaping a variety of therapeutic agents, have been described for S. aureus^47.\nMeasurement of bactericidal activity. […] For S. aureus, an overnight culture was diluted to an OD of 5×10^−7 in 2 ml of MH broth supplemented with the appropriate concentration of peptide. Sterile water was added to control cultures. Standing cultures were incubated at 37° C. and 100 μl volume aliquots were removed at 60 min time intervals for 8 h. These aliquots were plated on agar plates to measure the colony forming units (CFUs) that remained viable upon treatment. Control aliquots from the same time intervals were diluted before plating to accurately enumerate increasing CFU counts. Counts were performed from plates that were incubated at 37° C. overnight. A plot of CFU/ml against time was used to illustrate and evaluate the time dependent killing. The same procedure was followed for C. albicans except that YPD broth and a cultivation temperature of 30° C. was employed."}, "HeLa cells": {"system": "HeLa cells", "type": "cell-based", "settings": "24 h, alamarBlue", "experimental": "Peptide cytotoxicity. In vitro cytotoxicity was measured using the 3D EpiDerm skin tissues and HeLa Cells using a fluorescent reporter of cell viability, alamarBlue (ThermoFisher Scientific). 3D EpiDerm skin tissues (MatTek EPI-200-AFAB) were transferred to a 12 well plate containing 600 μL of AFAB-assay medium supplemented with 10% v/v alamarBlue. […] HeLa cells were seeded in a 96-well plate (2×10^4 cells/per well) and incubated overnight at 37° C. and 5% CO2 in a humidified incubator to prepare wells at ˜50% confluency of adherent cells. After the incubation, spent DMEM was removed and cells were washed with PBS. alamarBlue-containing medium was prepared by mixing Phenol Red-free DMEM with alamarBlue solution at a 9:1 ratio and a 180 μl volume was added to each well. Cells were treated with peptides varying from 3.25 to 200 μg/mL and then incubated for 24 h. The fluorescence intensities of treated cultures were normalized to values measured for an untreated control group. After the 24 h incubation period, alamarBlue fluorescence was measured at 590 nm upon excitation at 560 nm using Varioskan Lux plate reader (Thermo Scientific) plate reader."}, "M. luteus ATCC 4698": {"system": "M. luteus ATCC 4698", "experiment": "MIC, broth dilution", "type": "cell-based, Micrococcus luteus", "summary_of_the_method": "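Peptides (95% purity) were serially diluted 2-fold and mixed with bacteria diluted to OD 6×10^−4 in cation-adjusted Mueller Hinton broth. Standing cultures were incubated overnight at 37° C. MIC was the lowest peptide concentration with no observed growth.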"}, "Mycoplasma bovis": {"system": "Mycoplasma bovis", "experiment": "MIC, broth dilution", "type": "cell-based", "experimental": "(§1) MIC determination. MICs were measured using peptides with 95% purity. For bacterial studies, cation-adjusted Mueller Hinton (MH) broth was used as the growth medium whereas Yeast Peptone Dextrose (YPD; 10 g/L yeast extract, 20 g/L peptone, 20 g/L dextrose) was used for Candida spp. and other yeast. Microorganisms were diluted to an optical density of […] in MH or YPD broth and a 180 μl volume was mixed with 20 μl of peptide arrayed as a 2-fold dilution series in a flat-bottom 96-well microtitre plate. A control was performed using 20 μl of sterile water. Plates were incubated as standing cultures overnight at 37° C.\n(§2) Determination of minimum inhibitory concentrations. The MICs were measured for bioactive peptides identified from the initial screen. For bacterial studies, cation-adjusted Mueller Hinton (MH) broth was used as the growth medium whereas YPD was used for C. albicans. Bacterial cultures were diluted to a OD value of 6×10^−4 in MH broth and a 180 μl volume was mixed with 20 μl of peptide arrayed as 2-fold dilution series in a 96-well plate. For the positive control, 20 μl of sterile water was used. Plates were incubated as standing cultures overnight at 37° C. The lowest peptide concentration that resulted no observed microbial growth after an overnight treatment was defined as the MIC."}, "Streptococcus agalactiae": {"system": "Streptococcus agalactiae", "experiment": "MIC, broth dilution", "type": "cell-based", "settings": "clinical isolate", "experimental": "as §1, §2"}, "[1]": {"system": "Enterococcus faecalis ATCC 2912", "experiment": "MIC, broth dilution", "type": "cell-based", "experimental": "as §1, §2"}, "S. scuri": {"system": "S. scuri", "experiment": "MIC, broth dilution", "type": "cell-based", "settings": "isolate from a healthy dairy cow", "experimental": "as §1, §2"}, "[2]": {"system": "Streptococcus zooepidermicus", "experiment": "MIC, broth dilution", "type": "cell-based", "settings": "clinical isolate", "experimental": "as §1, §2"}, "Pasteurella multocida": {"system": "Pasteurella multocida", "experiment": "MIC, broth dilution", "type": "cell-based", "experimental": "as §1, §2"}, "Streptococcus canis": {"system": "Streptococcus canis", "experiment": "MIC, broth dilution", "type": "cell-based", "settings": "clinical isolate", "experimental": "as §1, §2"}, "Klebsiella pneumoniae": {"system": "Klebsiella pneumoniae", "experiment": "MIC, broth dilution", "type": "cell-based", "experimental": "as §1, §2"}, "Streptococcus equi": {"system": "Streptococcus equi", "experiment": "MIC, broth dilution", "type": "cell-based", "settings": "clinical isolate", "experimental": "as §1, §2"}, "[3]": {"system": "Mannheimia haemolytica (clinical, disease-causing isolate)", "experiment": "MIC, broth dilution", "type": "cell-based", "settings": "Table 7", "experimental": "as §1, §2"}, "[4]": {"system": "Streptococcus dysagalactiae", "experiment": "MIC, broth dilution", "type": "cell-based", "settings": "clinical isolate", "experimental": "as §1, §2"}, "S. auricularis": {"system": "S. auricularis", "experiment": "MIC, broth dilution", "type": "cell-based", "settings": "isolate from a healthy dairy cow", "experimental": "as §1, §2"}, "[5]": {"system": "Pseudomonas aeruginosa ATCC 27853", "experiment": "MIC, broth dilution", "type": "cell-based", "experimental": "as §1, §2"}, "S. equorum": {"system": "S. equorum", "experiment": "MIC, broth dilution", "type": "cell-based", "settings": "isolate from a healthy dairy cow", "experimental": "as §1, §2"}, "S. epidermidis": {"system": "S. epidermidis", "experiment": "MIC, broth dilution", "type": "cell-based", "settings": "isolate from a healthy dairy cow", "experimental": "as §1, §2"}, "C. albicans MYA-2876": {"system": "C. albicans MYA-2876", "experiment": "MIC, YPD broth", "type": "cell-based, Candida albicans", "settings": "Table 8", "summary_of_the_method": "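Yeast cells were diluted in YPD broth, and 180 μl aliquots were mixed with 20 μl of peptide from 2-fold serial dilutions in flat-bottom 96-well microtitre plates. Wells receiving 20 μl sterile water served as controls. After standing incubation overnight at 37° C, the MIC was taken as the lowest peptide concentration with no visible microbial growth.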"}, "C. albicans Y537": {"system": "C. albicans Y537", "experiment": "MIC, YPD broth", "type": "cell-based, Candida albicans", "settings": "Table 8"}},
  "note": "Like-named read-outs stand apart in the source and are kept apart here. Ends that are not written are not given here.",
  "data": [
    {"substance": "TVGGLVKWILKTVKKFA-NH2 [STIP3-29, TVGGLVKWILKTVKKFA-NH2]", "values": [
      {"measurement": "treated bacteria killed", "setting": "panel of 7 MRSA strains; 12.5 μg/mL (2-fold MIC), within the first 4 hours, panel of 7 MRSA strains", "value": "~99", "unit": "%"},
      {"measurement": "antibiotic effect", "setting": "panel of 7 MRSA strains; in words", "value": "bactericidal"},
      {"measurement": "IC50, HeLa cell survival", "setting": "HeLa cells", "value": "56 ± 1", "unit": "µg/mL"},
      {"measurement": "MIC M. luteus", "setting": "M. luteus ATCC 4698", "value": 1.56, "unit": "µg/mL"},
      {"measurement": "MIC M. luteus", "setting": "M. luteus ATCC 4698; molar", "value": 850, "unit": "nM"},
      {"measurement": "fold improvement of activity (MIC)", "setting": "M. luteus ATCC 4698; relative to STIP3-1, M. luteus", "value": 8, "unit": "fold"},
      {"measurement": "MIC (μg/ml)", "setting": "Mycoplasma bovis", "value": "> (> indicates no inhibition up to 50 μg/ml)"},
      {"measurement": "MIC", "setting": "Streptococcus agalactiae", "value": 3.13, "unit": "µg/mL"},
      {"measurement": "MIC", "setting": "[1]", "value": 12.5, "unit": "µg/mL"},
      {"measurement": "MIC", "setting": "S. scuri", "value": 3.13, "unit": "µg/mL"},
      {"measurement": "MIC", "setting": "[2]", "value": 3.13, "unit": "µg/mL"},
      {"measurement": "MIC (μg/ml)", "setting": "Pasteurella multocida", "value": "> (> indicates no inhibition up to 50 μg/ml)"},
      {"measurement": "MIC", "setting": "Streptococcus canis", "value": 6.25, "unit": "µg/mL"},
      {"measurement": "MIC (μg/ml)", "setting": "Klebsiella pneumoniae", "value": "> (> indicates no inhibition up to 50 μg/ml)"},
      {"measurement": "MIC", "setting": "Streptococcus equi", "value": 3.13, "unit": "µg/mL"},
      {"measurement": "MIC", "setting": "[3]", "value": 6.25, "unit": "µg/mL"},
      {"measurement": "MIC", "setting": "[4]", "value": 3.13, "unit": "µg/mL"},
      {"measurement": "MIC", "setting": "S. auricularis", "value": 1.56, "unit": "µg/mL"},
      {"measurement": "MIC (μg/ml)", "setting": "[5]", "value": "> (> indicates no inhibition up to 50 μg/ml)"},
      {"measurement": "MIC", "setting": "S. equorum", "value": 3.13, "unit": "µg/mL"},
      {"measurement": "MIC", "setting": "S. epidermidis", "value": 3.13, "unit": "µg/mL"},
      {"measurement": "MIC C. albicans MYA-2876", "setting": "C. albicans MYA-2876", "value": 12.5, "unit": "µg/mL"},
      {"measurement": "MIC C. albicans Y537", "setting": "C. albicans Y537", "value": 25, "unit": "µg/mL"}
    ]}
  ]
}
